Measured values as given in US20070128217A1 (priority 2003, published 2007).

How the values were obtained:
[1] = tested on: rabbit serum obtained by immunizing a rabbit with the SARS-CoV strain Frankfurt 1; assay type: binding; set-up: Binding of a rabbit serum to linear peptides / Binding of a rabbit serum to looped peptides / Rabbit serum linear peptides / Rabbit serum looped peptides / Binding of a rabbit serum to linear peptides of protein N of SARS-CoV Urbani (Rabbit serum linear peptides) / Binding of a rabbit serum to looped/cyclic peptides of protein N of SARS-CoV Urbani (Rabbit serum looped peptides): unit not given here
[2] = tested on: antibodies in sera from SARS patients (sera 1a, 1b, 2, 6, 37, 62, London, SARS-yellow, SARS-green); assay type: binding, human; set-up: Binding of serum 6 to linear peptides of protein X1 of SARS-CoV Urbani / Binding of serum 37 to linear peptides of protein X1 of SARS-CoV Urbani / Binding of serum 6 to looped/cyclic peptide (PEPSCAN-ELISA) / Binding of serum 37 to looped/cyclic peptide (PEPSCAN-ELISA) / Binding of serum 37 to looped/cyclic peptides of protein X1 of SARS-CoV Urbani / Binding of serum 6 to linear peptides of protein X2 / Binding of serum 37 to linear peptides of protein X2 / Binding of serum 37 to looped/cyclic peptides of protein X2 of SARS-CoV Urbani / Binding of serum 6 to linear peptides of protein M of SARS-CoV Urbani / Binding of serum 37 to linear peptides of protein M of SARS-CoV Urbani / Binding of serum 6 to looped/cyclic peptides of protein M of SARS-CoV Urbani / Binding of serum 37 to looped/cyclic peptides of protein M of SARS-CoV Urbani / Binding of serum 6 to linear peptides of protein X3 of SARS-CoV Urbani / Binding of serum 37 to linear peptides of protein X3 of SARS-CoV Urbani / Binding of serum 37 to looped/cyclic peptides of protein X3 of SARS-CoV Urbani / Binding of serum 6 to linear peptides of protein X4 of SARS-CoV Urbani / Binding of serum 37 to linear peptides of protein X4 of SARS-CoV Urbani / Binding of serum 37 to looped/cyclic peptides of protein X4 of SARS-CoV Urbani / Binding of serum 6 to linear peptides of protein X5 of SARS-CoV Urbani / Binding of serum 37 to linear peptides of protein X5 of SARS-CoV Urbani / Binding of serum 37 to looped/cyclic peptides of protein X5 of SARS-CoV Urbani / Binding of serum 6 to linear peptides of protein N of SARS-CoV Urbani / Binding of serum 37 to linear peptides of protein N of SARS-CoV Urbani / Binding of serum 6 to linear peptide (PEPSCAN-ELISA) / Binding of serum 1a to looped/cyclic peptides of protein N of SARS-CoV Urbani / Binding of serum 1b to looped/cyclic peptides of protein N of SARS-CoV Urbani / Binding of serum 2 to looped/cyclic peptides of protein N of SARS-CoV Urbani / Binding of serum 6 to looped/cyclic peptides of protein N of SARS-CoV Urbani / Binding of serum 37 to looped/cyclic peptides of protein N of SARS-CoV Urbani / Binding of serum 62 to looped/cyclic peptides of protein N of SARS-CoV Urbani / Binding of serum London to looped/cyclic peptides of protein N of SARS-CoV Urbani / Binding of serum SARS-green to looped/cyclic peptides of protein N of SARS-CoV Urbani: unit not given here
[3] = tested on: recombinant human anti-SARS-CoV antibody 03-018; assay type: binding; set-up: Binding of antibody 03-018 to linear peptides of the N protein of SARS-CoV Urbani / Binding of antibody 03-018 to looped/cyclic peptides of the N protein of SARS-CoV Urbani: unit not given here
[4] = tested on: control sera (pooled serum of ten healthy LUMC hospital workers; commercial negative donor pooled serum from the Dutch bloodbank); assay type: binding, human; set-up: Binding of Control serum LUMC to linear peptides / Binding of Control serum Blood-bank to linear peptides / Binding of Control serum LUMC to looped peptides / Binding of Control Serum Blood-Bank to Looped peptides / Binding of Control serum LUMC to linear peptides of the protein M of SARS-CoV Urbani / Binding of Control serum Blood-bank to linear peptides of the protein M of SARS-CoV Urbani / Binding of Control serum LUMC to looped peptides of the protein M of SARS-CoV Urbani / Binding of Control Serum Blood-Bank to Looped peptides of the protein M of SARS-CoV Urbani: unit not given here

Sequence | Binding of a rabbit serum to linear peptides of protein N of SARS-CoV Urbani (Rabbit serum linear peptides) [1] | Binding of a rabbit serum to looped/cyclic peptides of protein N of SARS-CoV Urbani (Rabbit serum looped peptides) [1] | Binding of serum 1a to linear peptides of protein N of SARS-CoV Urbani [2] | Binding of serum 1a to looped/cyclic peptides of protein N of SARS-CoV Urbani [2] | Binding of serum 1b to linear peptides of protein N of SARS-CoV Urbani [2] | Binding of serum 1b to looped/cyclic peptides of protein N of SARS-CoV Urbani [2] | Binding of serum 2 to linear peptides of protein N of SARS-CoV Urbani [2] | Binding of serum 2 to looped/cyclic peptides of protein N of SARS-CoV Urbani [2] | Binding of serum 6 to linear peptides of protein N of SARS-CoV Urbani [2] | Binding of serum 6 to looped/cyclic peptides of protein N of SARS-CoV Urbani [2] | Binding of serum 37 to linear peptides of protein N of SARS-CoV Urbani [2] | Binding of serum 37 to looped/cyclic peptides of protein N of SARS-CoV Urbani [2] | Binding of serum 62 to linear peptides of protein N of SARS-CoV Urbani [2] | Binding of serum 62 to looped/cyclic peptides of protein N of SARS-CoV Urbani [2] | Binding of serum London to linear peptides of protein N of SARS-CoV Urbani [2] | Binding of serum London to looped/cyclic peptides of protein N of SARS-CoV Urbani [2] | Binding of serum SARS-green to looped/cyclic peptides of protein N of SARS-CoV Urbani [2] | Binding of serum SARS-yellow to looped/cyclic peptides of protein N of SARS-CoV Urbani [2] | Binding of antibody 03-018 to linear peptides of the N protein of SARS-CoV Urbani [3] | Binding of antibody 03-018 to looped/cyclic peptides of the N protein of SARS-CoV Urbani [3] | also measured
SWFTALTQHGKEELR | 0.1 | 0.0 | 0.2 | 0.2 | 0.1 | 0.1 | 0.2 | 0.2 | 0.1 | 0.1 | 0.6 | 0.3 | 0.6 | 0.2 | 0.5 | 0.2 | 0.1 | 0.0 | 0.1 | 0.2 | Binding of serum SARS-green to linear peptides of protein N of SARS-CoV Urbani [2]: 0.2; Binding of serum SARS-yellow to linear peptides of protein N of SARS-CoV Urbani [2]: 0.5; Binding of Control Serum Blood-Bank to Looped peptides [4]: 0.4; Binding of Control serum Blood-bank to linear peptides [4]: 0.6; Binding of Control serum LUMC to linear peptides [4]: 0.7; Binding of Control serum LUMC to looped peptides [4]: 0.3
TALALLLLDRLNQLE | 0.2 | 0.5 | – | 0.4 | – | 0.3 | – | 0.5 | – | 0.3 | – | 0.8 | – | 0.7 | – | 0.5 | 0.7 | 0.5 | 0.1 | 0.2 | Binding of serum 1a to linear peptide (PEPSCAN-ELISA) [2]: 0.3; Binding of serum 1b to linear peptide (PEPSCAN-ELISA) [2]: 0.2; Binding of serum 2 to linear peptide (PEPSCAN-ELISA) [2]: 0.2; Binding of serum 6 to linear peptide (PEPSCAN-ELISA) [2]: 0.2; Binding of serum 37 to linear peptide (PEPSCAN-ELISA) [2]: 0.7; Binding of serum 62 to linear peptide (PEPSCAN-ELISA) [2]: 0.7; Binding of serum London to linear peptide (PEPSCAN-ELISA) [2]: 0.5; Binding of serum SARS-green to linear peptide (PEPSCAN-ELISA) [2]: 0.8; Binding of serum SARS-yellow to linear peptide (PEPSCAN-ELISA) [2]: 0.6; Binding of Control Serum Blood-Bank to Looped peptides [4]: 0.8; Binding of Control serum Blood-bank to linear peptides [4]: 0.7; Binding of Control serum LUMC to linear peptides [4]: 0.7; Binding of Control serum LUMC to looped peptides [4]: 0.8
TDNNQNGGRNGARPK | 0.2 | 0.4 | 0.3 | 0.2 | 0.2 | 0.1 | 0.4 | 0.2 | 0.2 | 0.2 | 0.8 | 0.4 | 1.0 | 0.2 | 0.6 | 0.3 | 0.1 | 0.3 | 0.2 | 0.2 | Binding of serum SARS-green to linear peptides of protein N of SARS-CoV Urbani [2]: 0.8; Binding of serum SARS-yellow to linear peptides of protein N of SARS-CoV Urbani [2]: 0.7; Binding of Control Serum Blood-Bank to Looped peptides [4]: 0.5; Binding of Control serum Blood-bank to linear peptides [4]: 0.9; Binding of Control serum LUMC to linear peptides [4]: 0.8; Binding of Control serum LUMC to looped peptides [4]: 0.5
TDYKHWPQIAQFAPS | 0.2 | 0.5 | 0.3 | 0.6 | 0.2 | 0.5 | 0.2 | 0.8 | 0.2 | 0.5 | 0.8 | 0.9 | 0.9 | 1.3 | 0.7 | 0.7 | 0.6 | 0.9 | 0.1 | 0.2 | Binding of serum SARS-green to linear peptides of protein N of SARS-CoV Urbani [2]: 0.4; Binding of serum SARS-yellow to linear peptides of protein N of SARS-CoV Urbani [2]: 0.7; Control Serum Blood-Bank Looped peptides [4]: 1.2; Control serum Blood-bank linear peptides [4]: 0.8; Control serum LUMC linear peptides [4]: 0.8; Control serum LUMC looped peptides [4]: 1.1
